Measured values from patent publication US9540323B2 (BRISTOL-MYERS SQUIBB COMPANY, priority 2012, dated 2017).

How the values were obtained:
[1] = biological target: cloned human P2Y1 receptors (Homo sapiens (Human), UniProt P47900); test: Binding Assay B - Scintillation Proximity Assay (SPA) for P2Y1 binding, [33P] 2MeS-ADP; conditions: SPA, 0.3 nM [33P] 2MeS-ADP, Cheng-Prusoff; read-out: P2Y1 Ki (nM) using binding assay B
Procedure: Binding Assay B—Scintillation Proximity Assay (SPA) for P2Y1 Binding
A SPA membrane binding assay was used to identify inhibitors of [^33P] […] Reactions were allowed to proceed to completion at room temperature for 1 hour followed by centrifugation of the plate for 5 min. About 40 μL of the aqueous solution was aspirated. Plates were sealed and the [^33P]

[2] = system: human platelet rich plasma (PRP); test: ADP induced platelet aggregation assay; conditions: Homo sapiens, Platelet, 5 min, read-out: PA IC50 (μM) @ 10 μM ADP, human PRP, 10 μM ADP, AUC at 5 minute
Procedure: The ability of P2Y1 antagonists covered in the present invention to inhibit platelet aggregation induced by 10 μM ADP was tested using human platelet rich plasma (PRP) as described in Platelet Protocols: Research and Clinical Laboratory Procedures (White, M. M. et al., Academic Press (1999)). Human blood was collected in 30 μM (final concentration in blood) argatroban (GSK) as the anticoagulant at a ratio of 1 mL per 9 mL of blood. The PRP was isolated by centrifugation at 170 g for 12 minutes. The platelet poor plasma (PPP) was used as the blank for optical aggregometry. Compounds of the present invention in DMSO solution was preincubated with 250 μL PRP at 37° C. for 1 minute with stirring speed of 1000 rpm. Aggregation was initiated by addition of 2.5 μL of 1 mM ADP (Chrono-log, Havertown, Pa.) for a final ADP concentration of 10 μM. Platelet aggregation was monitored using Optical Aggregometer (Chrono-log, Havertown, Pa.) and the area under the curve (AUC) at 5 minute was measured. IC50 was calculated using vehicle control as 0% inhibition.

Chain of cloned human P2Y1 receptors (P47900 whole entry): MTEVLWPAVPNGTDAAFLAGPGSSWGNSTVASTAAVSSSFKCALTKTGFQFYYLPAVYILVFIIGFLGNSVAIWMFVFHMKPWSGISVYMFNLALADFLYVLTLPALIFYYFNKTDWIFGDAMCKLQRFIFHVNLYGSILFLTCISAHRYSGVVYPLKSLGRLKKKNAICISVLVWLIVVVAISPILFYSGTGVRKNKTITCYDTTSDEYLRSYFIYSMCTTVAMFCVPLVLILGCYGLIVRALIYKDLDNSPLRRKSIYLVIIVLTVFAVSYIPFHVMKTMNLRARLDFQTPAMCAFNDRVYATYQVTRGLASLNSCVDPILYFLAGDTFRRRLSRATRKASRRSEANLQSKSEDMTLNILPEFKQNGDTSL

CC1(C)CN(c2ccccc2NC(=O)Nc2ccc(OC(F)(F)F)cc2)c2c(O)ccc(-c3ccc(F)c(F)c3)c21 [Example 204, 1-(2-(4-(3,4-Difluorophenyl)-7-hydroxy-3,3-dimethylindolin-1-yl)phenyl)-3-(4-(trifluoromethoxy)phenyl)urea]
Ki [1]: 7.7 nM
IC50 [2]: 0.4 µM

CC1(C)CN(c2ccccc2NC(=O)Nc2ccc(OC(F)(F)F)cc2)c2c(O)ccc(-c3ccc(Cl)cc3)c21 [Example 205, 1-(2-(4-(4-Chlorophenyl)-7-hydroxy-3,3-dimethylindolin-1-yl)phenyl)-3-(4-(trifluoromethoxy)phenyl)urea]
Ki [1]: 6.7 nM
IC50 [2]: 0.14 µM

CC1(C)CN(c2ccccc2NC(=O)Nc2ccc(OC(F)(F)F)cc2)c2c(O)ccc(-c3cccc(F)c3)c21 [Example 206, 1-(2-(4-(3-Fluorophenyl)-7-hydroxy-3,3-dimethylindolin-1-yl)phenyl)-3-(4-(trifluoromethoxy)phenyl)urea]
Ki [1]: 8.5 nM
IC50 [2]: 0.24 µM

CC1(C)CN(c2ccccc2NC(=O)Nc2ccc(OC(F)(F)F)cc2)c2c(O)ccc(-c3ccccc3F)c21 [Example 207, 1-(2-(4-(2-Fluorophenyl)-7-hydroxy-3,3-dimethylindolin-1-yl)phenyl)-3-(4-(trifluoromethoxy)phenyl)urea]
Ki [1]: 8.7 nM
IC50 [2]: 0.08 µM

CC1(C)CN(c2ccccc2NC(=O)Nc2csc(C(F)(F)F)n2)c2c(O)ccc(-c3ccc(F)cc3)c21 [Example 208, 1-(2-(4-(4-Fluorophenyl)-7-hydroxy-3,3-dimethylindolin-1-yl)phenyl)-3-(2-(trifluoromethyl)thiazol-4-yl)urea]
Ki [1]: 11.4 nM
IC50 [2]: 0.25 µM

CC1(C)CN(c2ccccc2NC(=O)Nc2nc3ccc(Cl)nc3s2)c2c(O)ccc(-c3ccc(F)cc3)c21 [Example 209, 1-(5-Chlorothiazolo[5,4-b]pyridin-2-yl)-3-(2-(4-(4-fluorophenyl)-7-hydroxy-3,3-dimethylindolin-1-yl)phenyl)urea]
Ki [1]: 13 nM
IC50 [2]: 0.23 µM

CC1(C)CN(c2ccccc2NC(=O)Nc2nc3ccc(F)cc3s2)c2c(O)ccc(-c3ccc(F)cc3)c21 [Example 210, 1-(6-Fluorobenzo[d]thiazol-2-yl)-3-(2-(4-(4-fluorophenyl)-7-hydroxy-3,3-dimethylindolin-1-yl)phenyl)urea]
Ki [1]: 12.4 nM
IC50 [2]: 0.08 µM

CC(C)CN1CCC(c2ccc(NC(=O)Nc3ccccc3N3CC(C)(C)c4c(-c5ccc(F)cc5)ccc(O)c43)cc2)CC1 [Example 211, 1-(2-(4-(4-Fluorophenyl)-7-hydroxy-3,3-dimethylindolin-1-yl)phenyl)-3-(4-(1-isobutylpiperidin-4-yl)phenyl)urea]
Ki [1]: 27.1 nM
IC50 [2]: 0.46 µM

CC1(C)CN(c2ccccc2NC(=O)Nc2csc(Cl)n2)c2c(O)cc(F)c(-c3ccc(F)cc3)c21 [Example 212, 1-(2-Chlorothiazol-4-yl)-3-(2-(5-fluoro-4-(4-fluorophenyl)-7-hydroxy-3,3-dimethylindolin-1-yl)phenyl)urea]
Ki [1]: 4.9 nM
IC50 [2]: 0.16 µM

CC1(C)CN(c2ccccc2NC(=O)Nc2nc3ccc(F)cc3s2)c2c(O)cc(F)c(-c3ccc(F)cc3)c21 [Example 213, 1-(2-(5-Fluoro-4-(4-fluorophenyl)-7-hydroxy-3,3-dimethylindolin-1-yl)phenyl)-3-(6-fluorobenzo[d]thiazol-2-yl)urea]
Ki [1]: 25.4 nM
IC50 [2]: 0.38 µM

CC1(C)CN(c2ccccc2NC(=O)Nc2ccc(OC(F)(F)F)cc2)c2c(O)cc(F)c(-c3ccc(Cl)cc3)c21 [Example 214, 1-(2-(4-(4-Chlorophenyl)-5-fluoro-7-hydroxy-3,3-dimethylindolin-1-yl)phenyl)-3-(4-(trifluoromethoxy)phenyl)urea]
Ki [1]: 13.7 nM
IC50 [2]: 0.21 µM

CC1(C)CN(c2ccccc2NC(=O)Nc2csc(Cl)n2)c2c(O)cc(F)c(-c3ccc(Cl)cc3)c21 [Example 215, 1-(2-(4-(4-Chlorophenyl)-5-fluoro-7-hydroxy-3,3-dimethylindolin-1-yl)phenyl)-3-(2-chlorothiazol-4-yl)urea]
Ki [1]: 15 nM
IC50 [2]: 0.14 µM

CC1(C)CN(c2ccccc2NC(=O)Nc2ccc(OC(F)(F)F)cc2)c2c(O)cc(F)c(-c3ccc(C(F)(F)F)cc3)c21 [Example 216, 1-(2-(5-Fluoro-7-hydroxy-3,3-dimethyl-4-(4-(trifluoromethyl)phenyl)indolin-1-yl)phenyl)-3-(4-(trifluoromethoxy)phenyl)urea]
Ki [1]: 54.7 nM
IC50 [2]: 0.14 µM

CC1(C)CN(c2ccccc2NC(=O)Nc2nc3ccc(F)cc3s2)c2c(O)cc(F)c(-c3ccc(Cl)cc3)c21 [Example 224, 1-(2-(4-(4-Chlorophenyl)-5-fluoro-7-hydroxy-3,3-dimethylindolin-1-yl)phenyl)-3-(6-fluorobenzo[d]thiazol-2-yl)urea]
Ki [1]: 26.1 nM
IC50 [2]: 0.34 µM

CC1(C)CN(c2ccccc2NC(=O)Nc2nc3ccc(Cl)cc3s2)c2c(O)cc(F)c(-c3ccc(Cl)cc3)c21 [Example 225, 1-(6-Chlorobenzo[d]thiazol-2-yl)-3-(2-(4-(4-chlorophenyl)-5-fluoro-7-hydroxy-3,3-dimethylindolin-1-yl)phenyl)urea]
Ki [1]: 34.7 nM
IC50 [2]: 0.36 µM

CC1(C)CN(c2ccccc2NC(=O)Nc2nc3ccc(Cl)nc3s2)c2c(O)cc(F)c(-c3ccc(Cl)cc3)c21 [Example 226, 1-(2-(4-(4-Chlorophenyl)-5-fluoro-7-hydroxy-3,3-dimethylindolin-1-yl)phenyl)-3-(5-chlorothiazolo[5,4-b]pyridin-2-yl)urea]
Ki [1]: 26.6 nM
IC50 [2]: 0.46 µM

CC1(C)CN(c2ccccc2NC(=O)Nc2nc3ccc(F)nc3s2)c2c(O)cc(F)c(-c3ccc(Cl)cc3)c21 [Example 227, 1-(2-(4-(4-Chlorophenyl)-5-fluoro-7-hydroxy-3,3-dimethylindolin-1-yl)phenyl)-3-(5-fluorothiazolo[5,4-b]pyridin-2-yl)urea]
Ki [1]: 21.6 nM
IC50 [2]: 0.56 µM

CC1(C)CN(c2ccccc2NC(=O)Nc2csc(C(F)(F)F)n2)c2c(O)cc(F)c(-c3ccc(F)cc3)c21 [Example 228, 1-(2-(5-Fluoro-4-(4-fluorophenyl)-7-hydroxy-3,3-dimethylindolin-1-yl)phenyl)-3-(2-(trifluoromethyl)thiazol-4-yl)urea]
Ki [1]: 13.6 nM
IC50 [2]: 0.3 µM

CC1(C)CN(c2ccccc2NC(=O)Nc2ccc(OC(F)(F)F)cc2)c2c(O)c(F)cc(-c3ccc(C(F)(F)F)cc3)c21 [Example 229, 1-(2-(6-Fluoro-7-hydroxy-3,3-dimethyl-4-(4-(trifluoromethyl)phenyl)indolin-1-yl)phenyl)-3-(4-(trifluoromethoxy)phenyl)urea]
Ki [1]: 15.3 nM
IC50 [2]: 0.22 µM

CC1(C)CN(c2ccccc2NC(=O)Nc2ccc(OC(F)(F)F)cc2)c2c(O)c(F)cc(-c3ccccc3)c21 [Example 230, 1-(2-(6-Fluoro-7-hydroxy-3,3-dimethyl-4-phenylindolin-1-yl)phenyl)-3-(4-(trifluoromethoxy)phenyl)urea]
Ki [1]: 16.3 nM
IC50 [2]: 0.3 µM

CC1(C)CN(c2ccccc2NC(=O)Nc2ccc(OC(F)(F)F)cc2)c2c(O)c(F)cc(-c3ccc(Cl)cc3)c21 [Example 231, 1-(2-(4-(4-Chlorophenyl)-6-fluoro-7-hydroxy-3,3-dimethylindolin-1-yl)phenyl)-3-(4-(trifluoromethoxy)phenyl)urea]
Ki [1]: 15.2 nM
IC50 [2]: 0.3 µM

CC1(C)CN(c2ccccc2NC(=O)Nc2ccc(OC(F)(F)F)cc2)c2c(O)c(F)cc(-c3ccc(F)cc3)c21 [Example 232, 1-(2-(6-Fluoro-4-(4-fluorophenyl)-7-hydroxy-3,3-dimethylindolin-1-yl)phenyl)-3-(4-(trifluoromethoxy)phenyl)urea]
Ki [1]: 14.7 nM
IC50 [2]: 0.39 µM

CC1(C)CN(c2ccccc2NC(=O)Nc2nc3ccc(F)nc3s2)c2c(O)cc(F)c(-c3ccc(F)cc3)c21 [Example 233, 1-(2-(5-Fluoro-4-(4-fluorophenyl)-7-hydroxy-3,3-dimethylindolin-1-yl)phenyl)-3-(5-fluorothiazolo[5,4-b]pyridin-2-yl)urea]
Ki [1]: 9.4 nM
IC50 [2]: 0.31 µM

CC1(C)CN(c2ccccc2NC(=O)Nc2ccc(OC(F)(F)F)cc2)c2c(O)cc(F)c(-c3ccc(Cl)c(F)c3)c21 [Example 234, 1-(2-(4-(4-Chloro-3-fluorophenyl)-5-fluoro-7-hydroxy-3,3-dimethylindolin-1-yl)phenyl)-3-(4-(trifluoromethoxy)phenyl)urea]
Ki [1]: 40.8 nM
IC50 [2]: 0.29 µM

CC1(C)CN(c2ccccc2NC(=O)Nc2ccc(OC(F)(F)F)cc2)c2c(O)cc(F)c(-c3cccc(Cl)c3)c21 [Example 235, 1-(2-(4-(3-Chlorophenyl)-5-fluoro-7-hydroxy-3,3-dimethylindolin-1-yl)phenyl)-3-(4-(trifluoromethoxy)phenyl)urea]
Ki [1]: 19.5 nM
IC50 [2]: 0.23 µM

CC1(C)CN(c2ccccc2NC(=O)Nc2ccc(OC(F)(F)F)cc2)c2c(O)cc(F)c(-c3ccc(Cl)cc3F)c21 [Example 236, 1-(2-(4-(4-Chloro-2-fluorophenyl)-5-fluoro-7-hydroxy-3,3-dimethylindolin-1-yl)phenyl)-3-(4-(trifluoromethoxy)phenyl)urea]
Ki [1]: 17 nM
IC50 [2]: 0.23 µM

CC1(C)CN(c2ccccc2NC(=O)Nc2ccc(OC(F)(F)F)cc2)c2c(O)cc(F)c(-c3ccc(F)c(Cl)c3)c21 [Example 237, 1-(2-(4-(3-Chloro-4-fluorophenyl)-5-fluoro-7-hydroxy-3,3-dimethylindolin-1-yl)phenyl)-3-(4-(trifluoromethoxy)phenyl)urea]
Ki [1]: 21.5 nM
IC50 [2]: 0.48 µM

CC(C)CN1CCC(c2ccc(NC(=O)Nc3ccccc3N3CC(C)(C)c4c(-c5ccc(Cl)cc5)c(F)cc(O)c43)cc2)CC1 [Example 238, 1-(2-(4-(4-Chlorophenyl)-5-fluoro-7-hydroxy-3,3-dimethylindolin-1-yl)phenyl)-3-(4-(1-isobutylpiperidin-4-yl)phenyl)urea]
Ki [1]: 16.3 nM
IC50 [2]: 0.4 µM
